Patent publication US20120071401A1, “AMYLIN AGONIST COMPOUNDS FOR ESTROGEN-DEFICIENT MAMMALS” (Amylin Pharamaceuticals, Inc., priority 2009, published 2012)
Each block holds one molecule with its values, some of them ahead of it.

Tests used:
[1] = human subjects; cited from earlier work
in vivo = conditions: rat, 50 ug/kg/d; for level at 672 h: Plasma amylin
Procedure: Amylin infusion to lean or obese, diabetic ZDF rats. Obese diabetic female ZDF rats (Charles River Laboratories) were maintained on 32% kcal/fat purified diet for approximately 6 weeks, and at 10 weeks of age were sorted into two weight-matched groups. One group was subjected to a bilateral ovariectomy (n=12) or SHAM surgery (n=12). Two weeks post-surgery rats were implanted with a single osmotic minipump (Alzet model 2ML4, Durect Corporation) delivering either vehicle or rat amylin (50 ug/kg/d) to half of each surgical group for 28 days. Lean (mean body weight 226±3 g) ZDF controls (Charles River) maintained on standard laboratory rodent chow (LM-485, 5% kcal/fat; Harlan Teklad) were sorted into weight-matched groups and implanted with a single osmotic minipump (Alzet model 2ML4, Durect Corporation) delivering either vehicle (n=9) or rat amylin (50 ug/kg/d; n=9) for 28 days. For both studies food intake and body weight were monitored weekly, and body composition was assessed at baseline and termination using NMR (Echo Medical Systems). After 28 days rats were euthanized by isoflurane overdose and cardiac blood collected.
Plasma metabolite analyses. Terminal plasma insulin (Crystal Chem Inc., Downer's Grove, Ill.), and leptin, total adiponectin and total ghrelin (Millipore, Billerica, […].) levels were measured using commercially available ELISA. Plasma glucose, triglyceride, and total cholesterol levels were measured using an Olympus bioanalyzer (Olympus America Diagnostics, Center Valley, Pa.). Plasma amylin levels were measured using an internal IEMA.

[2] = DIO rats, leptin dose alone; cited from earlier work

Molecule: CC[C@H](C)[C@H](NC(=O)[C@@H]1CCCN1C(=O)CNC(=O)[C@H](Cc1ccccc1)NC(=O)[C@H](CC(N)=O)NC(=O)[C@H](CC(N)=O)NC(=O)[C@H](CO)NC(=O)[C@H](CO)NC(=O)[C@H](Cc1c[nH]cn1)NC(=O)[C@@H](NC(=O)[C@H](CC(C)C)NC(=O)[C@H](Cc1ccccc1)NC(=O)[C@H](CC(N)=O)NC(=O)[C@H](C)NC(=O)[C@H](CC(C)C)NC(=O)[C@H](CCCNC(=N)N)NC(=O)[C@H](CCC(N)=O)NC(=O)[C@@H](NC(=O)[C@H](C)NC(=O)[C@@H]1CSSC[C@H](NC(=O)[C@@H](N)CCCCN)C(=O)N[C@@H](CC(N)=O)C(=O)N[C@@H]([C@@H](C)O)C(=O)N[C@@H](C)C(=O)N[C@@H]([C@@H](C)O)C(=O)N1)[C@@H](C)O)C(C)C)C(=O)N[C@@H](CC(C)C)C(=O)N1CCC[C@H]1C(=O)N1CCC[C@H]1C(=O)N[C@H](C(=O)N[C@@H](CC(N)=O)C(=O)N[C@H](C(=O)NCC(=O)N[C@@H](CO)C(=O)N[C@@H](CC(N)=O)C(=O)N[C@H](C(=O)N[C@@H](Cc1ccc(O)cc1)C(N)=O)[C@@H](C)O)C(C)C)[C@@H](C)O [pramlintide]
Food intake and body weight [1]: reduced food intake and body weight

level at 672 h (in vivo; ZDF (lean controls)): 3.43 ± 0.392 ng/mL
Plasma amylin (in vivo; female, ZDF (obese diabetic), 672 h): 3279 ± 430 pg/mL
level at 672 h (in vivo; female, ZDF (obese diabetic)): 3.45 ± 0.401 ng/mL
Molecule: CC(C)C[C@H](NC(=O)[C@H](CC(N)=O)NC(=O)[C@H](CC(N)=O)NC(=O)[C@H](CO)NC(=O)[C@H](CO)NC(=O)[C@H](CCCNC(=N)N)NC(=O)[C@@H](NC(=O)[C@H](CC(C)C)NC(=O)[C@H](Cc1ccccc1)NC(=O)[C@H](CC(N)=O)NC(=O)[C@H](C)NC(=O)[C@H](CC(C)C)NC(=O)[C@H](CCCNC(=N)N)NC(=O)[C@H](CCC(N)=O)NC(=O)[C@@H](NC(=O)[C@H](C)NC(=O)[C@@H]1CSSC[C@H](NC(=O)[C@@H](N)CCCCN)C(=O)N[C@@H](CC(N)=O)C(=O)N[C@@H]([C@@H](C)O)C(=O)N[C@@H](C)C(=O)N[C@@H]([C@@H](C)O)C(=O)N1)[C@@H](C)O)C(C)C)C(=O)NCC(=O)N1CCC[C@H]1C(=O)N[C@H](C(=O)N[C@@H](CC(C)C)C(=O)N1CCC[C@H]1C(=O)N1CCC[C@H]1C(=O)N[C@H](C(=O)N[C@@H](CC(N)=O)C(=O)N[C@H](C(=O)NCC(=O)N[C@@H](CO)C(=O)N[C@@H](CC(N)=O)C(=O)N[C@H](C(=O)N[C@@H](Cc1ccc(O)cc1)C(N)=O)[C@@H](C)O)C(C)C)[C@@H](C)O)C(C)C [rat amylin]

B1: leptin (protein, UniProt P50596 22-167, looked up)
Leptin: VPIHKVQDDTKTLIKTIVTRINDISHTQSVSARQRVTGLDFIPGLHPILSLSKMDQTLAVYQQILTSLPSQNVLQIAHDLENLRDLLHLLAFSKSCSLPQTRGLQKPESLDGVLEASLYSTEVVALSRLQGSLQDILQQLDLSPEC
notes: long term signal of adiposity; acts synergistically with amylin in DIO rats
Reducing body weight [2]: ineffective
